Experimental data from US20210046018A1 (priority 2019, published 2021).

Experiments:
[1] = tested on: cultured trigeminal ganglion neurons; settings: caused by nerve growth factor exposure; cited from earlier work
hindpaw incision = settings: topical, cited from earlier work
rat = assay: Orbital tightening (OT) after heptanol corneal abrasion injury, pre-clinical model of PRK; format: in vivo; settings: 24 hours post-injury; topical eye drops; FIG. 6B; abrasion increases OT scores
Description: A unilateral corneal injury was performed using topical application of heptanol. FIG. 3 is a diagram of a corneal abrasion method using topical application 310 of heptanol performed on an anesthetized rat. A local anesthetic was applied to the eye 320 via ophthalmic drops. A small metal ring 330 was then secured to the corneal surface with petroleum jelly. Heptanol (10 μL) 340 was placed inside the ring for 90 seconds, the heptanol was removed from inside the ring with a cotton swab and the eye is rinsed profusely with saline. The loose corneal epithelium was then removed with a cotton applicator 350. FIG. 4 is a graph representing of acute hyperalgesia after corneal abrasion injury, illustrating that this method induces photophobia as well as hyperalgesia to ocular application of menthol. This method produces abrasions of relatively uniform size and depth, in contrast to other mechanical abrasion methods.
In various embodiments, topical (ophthalmic) application of the compositions described herein can reduce or eliminate the hyperalgesia produced by corneal abrasion in a pre-clinical model of PRK. […]
Doses of trans-resveratrol up to 4% (corresponding to up to […] in 10 μL) were tested. […] Topical application is efficacious, because resveratrol is very lipophilic and should be readily taken up into the tear film that covers the surface of the eye. […]

corneal epithelium = format: in vivo, rat; settings: capsaicin application, FIG. 5C
Excerpt: Deeper wounds may remove the basement membrane and prevent reinnervation (at least in some strains of mice).

sodium channels = settings: in vivo; cited from earlier work
[2] = cited from earlier work

Structure (SMILES): Oc1ccc(C=Cc2cc(O)cc(O)c2)cc1 (racemic) [resveratrol]
- hyperexcitability of neurons [1]: reduce hyperexcitability
- hyperalgesic priming (hindpaw incision; 14-days after incision): prevents the full development
- acute hyperalgesia (hindpaw incision; following hindpaw incision): attenuates
- orbital tightening (OT) scores (rat): dose-dependent trend for resveratrol to reverse this

Structure (SMILES): COc1cc(CNC(=O)CCCC/C=C/C(C)C)ccc1O [capsaicin]
- overall epithelial structure (H&E stain) (corneal epithelium): does not alter overall epithelial structure

Structure (SMILES): NC1=N[C@H](O)[C@H]2[C@H]3O[C@]4(O)O[C@@H]([C@@H](O)[C@@]2(N1)[C@@H]4O)[C@]3(O)CO [TTX, tetrodotoxin]
- photophobia (sodium channels): can reduce the photophobia
- solubility in tear film [2]: not soluble in tear film
